Earlier results as cited in US7319013B2, “Serine hydroxymethyltransferase as a target for herbicides” (BASF Aktiengesellschaft, priority 2002, dated 2008).

Columns and labels:
[1] = molecular target: T1, ovine SHMT (Ovis aries, UniProt P35623); details: micromolar concentrations
T1 sequence (P35623 2-484 limits assumed): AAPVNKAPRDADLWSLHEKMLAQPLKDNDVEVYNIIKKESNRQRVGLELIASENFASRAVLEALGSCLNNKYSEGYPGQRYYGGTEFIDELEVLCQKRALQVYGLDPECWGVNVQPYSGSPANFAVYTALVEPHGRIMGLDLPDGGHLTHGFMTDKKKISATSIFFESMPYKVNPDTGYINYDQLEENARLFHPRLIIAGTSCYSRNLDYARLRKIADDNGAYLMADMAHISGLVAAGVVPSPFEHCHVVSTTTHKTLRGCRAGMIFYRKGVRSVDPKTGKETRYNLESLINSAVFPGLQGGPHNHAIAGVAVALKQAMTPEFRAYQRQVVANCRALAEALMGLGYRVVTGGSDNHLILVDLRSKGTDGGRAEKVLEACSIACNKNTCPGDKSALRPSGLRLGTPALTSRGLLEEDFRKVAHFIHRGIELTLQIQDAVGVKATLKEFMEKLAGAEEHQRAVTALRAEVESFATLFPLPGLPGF

[2] = tested on: SHMT from Euglena gracilis; details: millimolar concentrations
[3] = tested on: SHMT from CHO cells
[4] = tested on: SHMT from CHO cells; details: by means of photo-linkage

Structure (SMILES)	inhibition of SHMT [2]	also measured
NOC[C@@H](N)C(=O)O [O-amino-D-serine]	–	inhibitory effect on SHMT [1]: have an inhibitory effect
N[C@@H](CS)C(=O)O [cystein]	can be inhibited	–
NC(Cn1ccc(=O)c(O)c1)C(=O)O (stereo not drawn) [mimosine]	–	inhibition of SHMT [3]: does not inhibit it; binding to SHMT [4]: can be bound
N[C@@H](CO)C(=O)O [serine]	can be inhibited	–
NCC(=O)O [glycin]	can be inhibited	–
